For twelve compounds, IC50 results are on record in US20110190280A1, “Thiazole And Oxazole Kinase Inhibitors” (priority 2007, published 2011).

One assay addresses B-Raf (Homo sapiens, UniProt P15056). The assay can be described thus: B-Raf Accelerated MEK ATPase assay (BRAMA). In kind it is biochemical. Particulars: BRAMA enzyme assay; class by pIC50; read-out: B-Raf Activity. Put shortly: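 B-Raf activity read as intrinsic MEK ATPase: catalytic activated RAF with non-phosphorylated MEK drives ADP formation, coupled through pyruvate kinase and lactate dehydrogenase to NADH oxidation, independent of ERK phosphorylation.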

The next assay concerns SK-MEL-28 tumor cells. As to the kind of experiment: Cell growth inhibition assay (CellTiter-Glo), SK-MEL-28.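 Also: luminescent total ATP as a proxy for cell number, threefold serial dilutions at 0.2% DMSO, percent growth inhibition versus DMSO vehicle control wells.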 Particulars: Homo sapiens, SK-MEL-28, 72 h, read-out: Activity in SK-MEL-28 Tumor Cells.
The subject of another assay is HT-29 tumor cells. The assay can be described thus: Cell growth inhibition assay (CellTiter-Glo), HT-29.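 Also: ATP content read by luminescence as proxy for cell number, growth inhibition versus DMSO vehicle wells, 0.2% DMSO final, nine serial threefold compound dilutions.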 Conditions: Homo sapiens, HT-29, 72 h, read-out: Activity in HT-29 Tumor Cells. Background: Cellular ATP, detected with luciferase, serves as a proxy for viable cell number.
In another assay the target is ErbB2 (Homo sapiens, UniProt P04626). The assay can be described thus: ErbB2 kinase autophosphorylation assay (peptide phosphorylation, HTRF). In kind it is biochemical. Conditions: 10 nM ErbB2, HTRF; class by pIC50. The procedure:
(§1) A selection of compounds of the present invention were tested for inhibitory activity against EGFR and ErbB2 kinases in autophosphorylation assays.
(§2) The method measures the ability of the isolated enzyme to catalyse the transfer of the gamma-phosphate from ATP onto the tyrosine residue of a biotinylated synthetic peptide referenced “Peptide C” in Brignola, P. S., et al, (2002) J. Biol. Chem. 277(2):1576-1585. The extent of tyrosine phosphorylation was measured using an anti-phosphotyrosine antibody, and quantified by homogenous time-resolved fluorescence (HTRF).
(§3) Reactions were performed in black 384-well polystyrene flat-bottom plates in a final volume of 20 ul. Assays were performed by adding 10 μl of each of the following solutions, substrate Mix and enzyme mix: The Substrate mix contained 100 mM 3-[N-morpholino]propanesulfonic acid (MOPS) (pH 7.5), 2 mM MnCl2, 20 μM ATP, 0.01% Tween-20, 0.1 mg/mL (BSA), 0.8 uM peptide substrate, and 1 mM dithiothreitol. The enzyme mix contained 100 mM MOPS (pH7.5); 0.01% Tween-20; 0.1 mg/mL BSA, and either 0.8 nM EGFR, 10 nM ErbB2, or 1 nM ErbB4
(§4) The enzyme mix was added to the compound plates and the plates were incubated at 20° C. for 1 hour. The reactions were allowed to proceed for 90 minutes at 20° C. The reactions were then terminated by the addition of 20 μl 100 mM EDTA to each well. 40 μl/well of HTRF detection mix were added to the assay plates. The final concentrations of the detection reagents were: 100 mM HEPES (pH7.5), 0.1 mg/mL BSA, 15 nM streptavidin-labeled allophycocyanin (PerkinElmer), and 1 nM europium-labeled anti-phosphotyrosine antibody (PerkinElmer). Assay plates were left unsealed and were counted in a Wallac Multilabel Counter 1420 (PerkinElmer).
(§5) Compounds under analysis were dissolved in Me2SO to 1.0 mM and serially diluted 1 to 3 with Me2SO through twelve dilutions. 1 μl of each concentration was transferred to the corresponding well of an assay plate. This creates a final compound concentration range from 0.00027 to 47.6 μM.
(§6) The data for dose responses were plotted as % Inhibition calculated with the data reduction formula 100*(1−(U1−C2)/(C1−C2)) versus concentration of compound where U is the unknown value, C1 is the average control value obtained for 4.76% DMSO, and C2 is the average control value obtained for 0.035 M EDTA. Data were fitted with a curve described by:
(§7) where Vmax is the upper asymptote, Y2 is the Y intercept, and K is the IC50. The results for each compound were recorded as pIC50s, calculated as follows: […]
(§8) In the following table: • “+” indicates no pIC50 measurement greater than 6 against EGFR or ErbB2, • “++” indicates at least one pIC50 measurement greater than 6 against EGFR or ErbB2 but no measurement greater than pIC50 of 7; and • “+++” indicates at least one pIC50 measurement of greater than 7 against EGFR or ErbB2.

A further assay deals with Colo205 tumor cells. As to the kind of experiment: Cell growth inhibition assay (CellTiter-Glo), Colo205.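 Also: growth measured via total ATP luminescence (CellTiter-Glo) as a proxy for cell number, inhibition expressed against DMSO-treated control wells, 3-day exposure at 0.2% final DMSO.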 Particulars: Homo sapiens, COLO 205, 72 h, read-out: Activity in Colo205 Tumor Cells.
The test system of the next assay is SK-MEL-3 tumor cells. As to the kind of experiment: Cell growth inhibition assay (CellTiter-Glo), SK-MEL-3.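 Also: human melanoma cells grown with compound for 3 days in 0.2% DMSO, total ATP read by luminescence as proxy for cell number, growth inhibition versus DMSO-treated wells.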 Conditions: Homo sapiens, SK-MEL3, 72 h, read-out: Activity in SK-MEL-3 Tumor Cells.
The target of another assay is EGFR (Homo sapiens, UniProt P00533). The assay can be described thus: EGFR kinase autophosphorylation assay (peptide phosphorylation, HTRF). Type of assay: biochemical. Conditions: 0.8 nM EGFR, class by pIC50. The procedure:
as §1, §2, §3, §4, §5, §6, §7, §8
(In general: In TR-FRET formats the signal depends on donor and acceptor labels being close together.)

In another assay the test system is A375P tumor cells. The assay can be described thus: Cell growth inhibition assay (CellTiter-Glo), A375P.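 Also: total ATP luminescence used as proxy for cell number, serial threefold compound dilutions at 0.2% DMSO, growth inhibition expressed versus DMSO vehicle-treated wells.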 Conditions: Homo sapiens, 72 h, read-out: Activity in A375P Tumor Cells.

Counter-ions that a name gives are not always drawn.

Chain of B-Raf (P15056 whole entry): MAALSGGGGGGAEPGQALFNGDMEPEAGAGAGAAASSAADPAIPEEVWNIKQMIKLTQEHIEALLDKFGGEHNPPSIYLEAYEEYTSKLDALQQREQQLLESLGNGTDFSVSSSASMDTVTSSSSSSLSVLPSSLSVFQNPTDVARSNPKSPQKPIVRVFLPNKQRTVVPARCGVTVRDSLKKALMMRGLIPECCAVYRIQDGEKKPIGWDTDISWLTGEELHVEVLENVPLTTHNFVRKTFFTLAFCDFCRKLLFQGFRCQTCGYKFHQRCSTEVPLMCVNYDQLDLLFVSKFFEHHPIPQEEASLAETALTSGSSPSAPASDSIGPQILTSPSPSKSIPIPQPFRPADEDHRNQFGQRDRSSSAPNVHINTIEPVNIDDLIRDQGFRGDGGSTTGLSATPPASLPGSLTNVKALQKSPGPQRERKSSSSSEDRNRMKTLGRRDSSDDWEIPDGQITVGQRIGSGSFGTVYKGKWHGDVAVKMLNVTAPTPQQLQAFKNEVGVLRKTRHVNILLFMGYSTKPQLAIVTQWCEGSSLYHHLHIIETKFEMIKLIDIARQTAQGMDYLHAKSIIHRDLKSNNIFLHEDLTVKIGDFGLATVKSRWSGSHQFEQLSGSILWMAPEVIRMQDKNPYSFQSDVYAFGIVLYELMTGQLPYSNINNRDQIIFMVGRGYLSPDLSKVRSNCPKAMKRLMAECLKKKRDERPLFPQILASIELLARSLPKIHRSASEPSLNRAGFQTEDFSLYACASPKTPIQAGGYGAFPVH
Chain of EGFR (P00533 25-1210): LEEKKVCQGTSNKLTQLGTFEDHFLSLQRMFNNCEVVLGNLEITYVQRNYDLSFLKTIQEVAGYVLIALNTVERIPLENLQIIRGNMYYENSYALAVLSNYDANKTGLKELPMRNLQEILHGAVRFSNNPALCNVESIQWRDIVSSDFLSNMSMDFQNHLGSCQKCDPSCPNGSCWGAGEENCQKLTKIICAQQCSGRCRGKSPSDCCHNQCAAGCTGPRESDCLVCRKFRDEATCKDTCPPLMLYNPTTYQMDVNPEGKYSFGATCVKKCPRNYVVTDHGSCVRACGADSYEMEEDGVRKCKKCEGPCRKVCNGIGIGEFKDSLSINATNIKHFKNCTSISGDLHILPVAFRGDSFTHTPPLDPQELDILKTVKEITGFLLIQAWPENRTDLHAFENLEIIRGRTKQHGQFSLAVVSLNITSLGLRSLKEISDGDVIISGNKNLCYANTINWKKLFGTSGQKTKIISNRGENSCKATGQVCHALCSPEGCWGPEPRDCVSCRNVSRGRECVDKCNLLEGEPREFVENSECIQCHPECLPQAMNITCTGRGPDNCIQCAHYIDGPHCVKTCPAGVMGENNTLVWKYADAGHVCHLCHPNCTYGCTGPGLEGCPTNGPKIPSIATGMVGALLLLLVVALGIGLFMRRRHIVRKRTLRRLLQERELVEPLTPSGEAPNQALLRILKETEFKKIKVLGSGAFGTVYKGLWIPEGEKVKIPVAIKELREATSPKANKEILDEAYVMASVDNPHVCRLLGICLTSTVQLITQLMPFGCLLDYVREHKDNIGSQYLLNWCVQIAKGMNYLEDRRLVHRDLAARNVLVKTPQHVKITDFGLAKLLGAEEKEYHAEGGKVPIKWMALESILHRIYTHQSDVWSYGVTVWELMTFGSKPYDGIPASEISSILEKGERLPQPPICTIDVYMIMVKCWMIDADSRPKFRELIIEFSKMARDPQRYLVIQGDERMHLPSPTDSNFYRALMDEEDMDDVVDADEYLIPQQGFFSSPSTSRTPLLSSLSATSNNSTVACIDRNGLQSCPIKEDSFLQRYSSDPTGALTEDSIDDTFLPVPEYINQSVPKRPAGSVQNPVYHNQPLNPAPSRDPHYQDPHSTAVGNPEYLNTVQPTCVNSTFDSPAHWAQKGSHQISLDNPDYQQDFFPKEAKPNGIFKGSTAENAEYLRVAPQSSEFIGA
Chain of ErbB2 (P04626 23-1255): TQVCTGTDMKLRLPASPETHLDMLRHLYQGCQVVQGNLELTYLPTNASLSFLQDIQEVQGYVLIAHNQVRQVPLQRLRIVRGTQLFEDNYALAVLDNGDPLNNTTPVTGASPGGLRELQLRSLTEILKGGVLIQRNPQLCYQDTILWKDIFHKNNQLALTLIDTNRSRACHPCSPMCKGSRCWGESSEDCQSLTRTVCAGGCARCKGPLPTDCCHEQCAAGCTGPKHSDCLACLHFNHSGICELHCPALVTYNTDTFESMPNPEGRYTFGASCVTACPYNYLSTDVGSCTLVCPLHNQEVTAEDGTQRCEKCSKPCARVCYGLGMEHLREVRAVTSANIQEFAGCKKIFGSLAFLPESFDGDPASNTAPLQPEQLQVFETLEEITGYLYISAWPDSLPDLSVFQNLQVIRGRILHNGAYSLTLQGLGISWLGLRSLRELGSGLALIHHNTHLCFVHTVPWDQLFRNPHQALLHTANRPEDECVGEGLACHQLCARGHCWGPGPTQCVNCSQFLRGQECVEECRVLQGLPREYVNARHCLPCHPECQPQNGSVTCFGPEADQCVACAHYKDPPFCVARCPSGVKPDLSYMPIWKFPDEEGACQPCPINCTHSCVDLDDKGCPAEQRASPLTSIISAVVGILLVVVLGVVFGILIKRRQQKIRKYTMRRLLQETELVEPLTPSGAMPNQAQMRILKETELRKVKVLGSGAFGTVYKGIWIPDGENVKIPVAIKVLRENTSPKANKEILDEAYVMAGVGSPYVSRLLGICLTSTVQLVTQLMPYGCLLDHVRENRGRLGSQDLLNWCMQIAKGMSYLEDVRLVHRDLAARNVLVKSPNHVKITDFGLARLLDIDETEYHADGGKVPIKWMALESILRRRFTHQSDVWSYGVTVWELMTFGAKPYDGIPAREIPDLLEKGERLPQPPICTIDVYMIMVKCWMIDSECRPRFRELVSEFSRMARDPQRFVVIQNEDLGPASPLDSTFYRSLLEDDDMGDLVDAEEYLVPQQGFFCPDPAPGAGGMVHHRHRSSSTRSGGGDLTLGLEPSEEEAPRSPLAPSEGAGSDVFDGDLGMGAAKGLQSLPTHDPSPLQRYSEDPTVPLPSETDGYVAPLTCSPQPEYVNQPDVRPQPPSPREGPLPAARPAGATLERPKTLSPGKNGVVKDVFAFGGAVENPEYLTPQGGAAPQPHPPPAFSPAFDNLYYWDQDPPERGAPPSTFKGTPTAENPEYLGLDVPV

Turning to `CCNc1nc(-c2cccc(OC)c2)c(-c2ccnc(Nc3ccc(OC4CCN(CCS(C)(=O)=O)CC4)c(F)c3)n2)s1` [Example 41, 4-{2-(Ethylamino)-4-[3-(methyloxy)phenyl]-1,3-thiazol-5-yl}-N-[3-fluoro-4-({1-[2-(methylsulfonyl)ethyl]-4-piperidinyl}oxy)phenyl]-2-pyrimidinamine], the IC50 on B-Raf was below 100 nM; with SK-MEL-28 tumor cells, below 500 nM; in the assay on HT-29 tumor cells it was below 500 nM; against ErbB2, above 1000 nM; in the assay on Colo205 tumor cells, below 500 nM; in the assay on SK-MEL-3 tumor cells, below 500 nM. Besides, the results for the IC50 on EGFR and in the assay on A375P tumor cells were 100 to 1000 nM and below 500 nM, respectively.

In the case of `CCNc1nc(-c2cc(OC)cc(OC)c2)c(-c2ccnc(Nc3ccc(OC4CCN(CCS(C)(=O)=O)CC4)c(C)c3)n2)o1` [Example 87], the IC50 on B-Raf was below 100 nM; with SK-MEL-28 tumor cells, 500 to 5000 nM; with HT-29 tumor cells, 500 to 5000 nM; against ErbB2 it was above 1000 nM; in the assay with Colo205 tumor cells, 500 to 5000 nM; in the assay on SK-MEL-3 tumor cells, 500 to 5000 nM. The IC50 on EGFR was above 1000 nM; with A375P tumor cells, 500 to 5000 nM.

As for `COCCNc1nc(-c2cccc(OC)c2)c(-c2ccnc(Nc3ccc(N4CCOCC4)c(Cl)c3)n2)s1` [Example 43, N-[3-Chloro-4-(4-morpholinyl)phenyl]-4-{2-{[2-(methyloxy)ethyl]amino}-4-[3-(methyloxy)phenyl]-1,3-thiazol-5-yl}-2-pyrimidinamine hydrochloride], the IC50 was below 100 nM on B-Raf; above 5000 nM in the assay with SK-MEL-28 tumor cells; below 500 nM in the assay with HT-29 tumor cells; below 100 nM against ErbB2; 500 to 5000 nM in the assay with Colo205 tumor cells; below 500 nM with SK-MEL-3 tumor cells. The IC50 on EGFR was below 100 nM; in the assay with A375P tumor cells it was below 500 nM.

For the compound `Fc1cc(Nc2nccc(-c3sc(N4CCCC4)nc3-c3cccc(Cl)c3)n2)ccc1OCCN1CCCC1` [Example 103], the IC50 is below 100 nM on B-Raf; 500 to 5000 nM in the assay on SK-MEL-28 tumor cells; below 500 nM in the assay with HT-29 tumor cells; below 100 nM at ErbB2; 500 to 5000 nM with Colo205 tumor cells; below 500 nM with SK-MEL-3 tumor cells. Further, the figures for the IC50 on EGFR and in the assay with A375P tumor cells were 100 to 1000 nM and 500 to 5000 nM, respectively.

In the case of `CCNc1nc(-c2cccc(O)c2)c(-c2ccnc(Nc3ccc(OCCN4CCCC4)c(Cl)c3)n2)s1` [Example 44], the IC50 at B-Raf is below 100 nM; with SK-MEL-28 tumor cells it was below 500 nM; with HT-29 tumor cells it was below 500 nM; against ErbB2, below 100 nM; in the assay on Colo205 tumor cells it was below 500 nM; in the assay on SK-MEL-3 tumor cells, below 500 nM. Moreover, the results for the IC50 against EGFR and with A375P tumor cells were below 100 nM and below 500 nM, respectively.

As for `CCc1nc(-c2ccc(CO)c(OC)c2)c(-c2ccnc(Nc3ccc(N4CCN(C(C)=O)CC4)nc3)n2)s1` [Example 55], the IC50 was below 100 nM at B-Raf; below 500 nM with SK-MEL-28 tumor cells; below 500 nM in the assay with HT-29 tumor cells; above 1000 nM against ErbB2; below 500 nM in the assay on Colo205 tumor cells; below 500 nM in the assay with SK-MEL-3 tumor cells. For the same compound, the IC50 against EGFR was above 1000 nM; in the assay on A375P tumor cells it was below 500 nM.

On to `CCNc1nc(-c2cc(C)cc(OC)c2)c(-c2ccnc(Nc3ccc(N4CCN(C(C)=O)CC4)nc3)n2)s1` [Example 36, N-[6-(4-Acetyl-1-piperazinyl)-3-pyridinyl]-4-{2-(ethylamino)-4-[3-methyl-5-(methyloxy)phenyl]-1,3-thiazol-5-yl}-2-pyrimidinamine], for which the IC50 was below 100 nM at B-Raf; below 500 nM with SK-MEL-28 tumor cells; below 500 nM in the assay on HT-29 tumor cells; above 1000 nM against ErbB2; below 500 nM with Colo205 tumor cells; below 500 nM in the assay with SK-MEL-3 tumor cells. For the same compound, the IC50 against EGFR is above 1000 nM; with A375P tumor cells, below 500 nM.

Take `COc1cc(C)cc(-c2nc(CNS(C)(=O)=O)sc2-c2ccnc(Nc3ccc(N4CCN(C(C)=O)CC4)nc3)n2)c1` [Example 64, N-({5-(2-{[6-(4-Acetyl-1-piperazinyl)-3-pyridinyl]amino}-4-pyrimidinyl)-4-[3-methyl-5-(methyloxy)phenyl]-1,3-thiazol-2-yl}methyl)methanesulfonamide]: the IC50 is below 100 nM on B-Raf; below 500 nM with SK-MEL-28 tumor cells; below 500 nM in the assay on HT-29 tumor cells; above 1000 nM against ErbB2; below 500 nM in the assay with Colo205 tumor cells; below 500 nM in the assay with SK-MEL-3 tumor cells. The IC50 was above 1000 nM against EGFR and below 500 nM in the assay with A375P tumor cells.

For the compound `CCc1nc(-c2cc(C)cc(OC)c2)c(-c2ccnc(Nc3ccc(OCCO)c(C#N)c3)n2)s1` [Example 107], the IC50 on B-Raf is below 100 nM; with SK-MEL-28 tumor cells, 500 to 5000 nM; with HT-29 tumor cells it was below 500 nM; at ErbB2, above 1000 nM; in the assay with Colo205 tumor cells, below 500 nM; with SK-MEL-3 tumor cells, below 500 nM. In addition, the IC50 at EGFR was above 1000 nM; with A375P tumor cells it was 500 to 5000 nM.

In the case of `CCNc1nc(-c2cc(C)cc(OC)c2)c(-c2ccnc(Nc3ccc(N4CCN(CCF)CC4)c(F)c3)n2)s1` [Example 29, 4-{2-(Ethylamino)-4-[3-methyl-5-(methyloxy)phenyl]-1,3-thiazol-5-yl}-N-{3-fluoro-4-[4-(2-fluoroethyl)-1-piperazinyl]phenyl}-2-pyrimidinamine], the IC50 was below 100 nM at B-Raf; below 500 nM in the assay on SK-MEL-28 tumor cells; below 500 nM in the assay with HT-29 tumor cells; above 1000 nM on ErbB2; below 500 nM with Colo205 tumor cells; below 500 nM in the assay on SK-MEL-3 tumor cells. In addition, the IC50 against EGFR is above 1000 nM; in the assay with A375P tumor cells, below 500 nM.

Turning to `CCc1nc(-c2cc(O)cc(OC)c2)c(-c2ccnc(Nc3ccc(OC4CCN(CCS(C)(=O)=O)CC4)c(F)c3)n2)s1` [Example 74, trifluoroacetic acid salt], the IC50 on B-Raf was below 100 nM; with SK-MEL-28 tumor cells, below 500 nM; in the assay on HT-29 tumor cells, below 500 nM; against ErbB2 it was above 1000 nM; in the assay with Colo205 tumor cells, below 500 nM; with SK-MEL-3 tumor cells it was below 500 nM. Moreover, the IC50 is above 1000 nM against EGFR and below 500 nM with A375P tumor cells.

For the compound `CCNc1nc(-c2cccc(OC)c2)c(-c2ccnc(Nc3ccc(OCCN(C)C)c(C)c3)n2)s1` [Example 77, N-(4-{[2-(Dimethylamino)ethyl]oxy}-3-methylphenyl)-4-{2-(ethylamino)-4-[3-(methyloxy)phenyl]-1,3-thiazol-5-yl}-2-pyrimidinamine], the IC50 on B-Raf is below 100 nM; in the assay on SK-MEL-28 tumor cells, 500 to 5000 nM; in the assay with HT-29 tumor cells, below 500 nM; against ErbB2, below 100 nM; in the assay on Colo205 tumor cells, below 500 nM; with SK-MEL-3 tumor cells, below 500 nM. Further, the IC50 on EGFR is below 100 nM; in the assay on A375P tumor cells, below 500 nM.
